In patent US8546375B2, “(3-(4-(aminomethyl)phenoxy or phenylthio)azetidin-1-yl)(5-phenyl-1,3,4-oxadiazol-2-yl)methanone compounds” (AstraZeneca AB, priority 2010, dated 2013):

Target: T1, Melanin Concentrating Hormone Receptor 1 (MCHR1) (Homo sapiens, UniProt Q99705)
T1 construct: expressed in transfected cells
Assay: MCHR1 Receptor Activation Assay (GTPγ^35S)
Assay type: biochemical
Settings: read-out: GTPγ^35S IC50

T1 sequence (Q99705 whole entry): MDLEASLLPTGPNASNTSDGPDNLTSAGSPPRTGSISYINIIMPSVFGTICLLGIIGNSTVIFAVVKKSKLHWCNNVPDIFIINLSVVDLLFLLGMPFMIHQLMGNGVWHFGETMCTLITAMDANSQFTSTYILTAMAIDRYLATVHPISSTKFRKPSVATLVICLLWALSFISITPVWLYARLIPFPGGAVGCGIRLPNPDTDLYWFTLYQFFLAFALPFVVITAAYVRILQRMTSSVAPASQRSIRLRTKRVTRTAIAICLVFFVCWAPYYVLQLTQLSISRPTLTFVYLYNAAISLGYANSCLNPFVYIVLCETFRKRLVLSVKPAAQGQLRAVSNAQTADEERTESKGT

Row | SMILES | IC50
1 | COc1ccc(-c2nnc(C(=O)N3CC(Oc4ccc(CN5CCN(C(C)=O)CC5)cc4)C3)o2)cc1 [Example 24, 1-(4-(4-(1-(5-(4-Methoxyphenyl)-1,3,4-oxadiazole-2-carbonyl)azetidin-3-yloxy)benzyl)piperazin-1-yl)ethanone] | 44 nM
2 | Cc1cc(CN2CCCC2)ccc1OC1CN(C(=O)c2nnc(-c3ccc(Cl)cc3)o2)C1 [Example 19, (5-(4-Chlorophenyl)-1,3,4-oxadiazol-2-yl)(3-(2-methyl-4-(pyrrolidin-1-ylmethyl)phenoxy)azetidin-1-yl)methanone] | 6.5 nM
3 | CN(C)Cc1ccc(OC2CN(C(=O)c3nnc(-c4ccccc4)o3)C2)cc1 [Example 33, (3-(4-((Dimethylamino)methyl)phenoxy)azetidin-1-yl)(5-phenyl-1,3,4-oxadiazol-2-yl)methanone] | 34 nM
4 | CCC1(O)CN(Cc2ccc(OC3CN(C(=O)c4nnc(-c5ccc(OC)cc5)o4)C3)cc2C)C1 [Example 73, (3-(4-((3-Ethyl-3-hydroxyazetidin-1-yl)methyl)-3-methylphenoxy)azetidin-1-yl)(5-(4-methoxyphenyl)-1,3,4-oxadiazol-2-yl)methanone] | 14 nM
5 | CCC1(O)CN(Cc2ccc(OC3CN(C(=O)c4nnc(-c5ccc(OC)cc5)o4)C3)c(C)c2)C1 [Example 72, (3-(4-((3-Ethyl-3-hydroxyazetidin-1-yl)methyl)-2-methylphenoxy)azetidin-1-yl)(5-(4-methoxyphenyl)-1,3,4-oxadiazol-2-yl)methanone] | 15 nM
6 | COc1ccc(-c2nnc(C(=O)N3CC(Oc4ccc(CN5CCN(C)CC5)c(Cl)c4)C3)o2)cc1 [Example 49, (3-(3-Chloro-4-((4-methylpiperazin-1-yl)methyl)phenoxy)azetidin-1-yl)(5-(4-methoxyphenyl)-1,3,4-oxadiazol-2-yl)methanone] | 37 nM
7 | CSc1ccc(-c2nnc(C(=O)N3CC(Oc4ccc(CN(C)C)cc4)C3)o2)cc1 [Example 34, (3-(4-((Dimethylamino)methyl)phenoxy)azetidin-1-yl)(5-(4-(methylthio)phenyl)-1,3,4-oxadiazol-2-yl)methanone] | 18 nM
8 | O=C(c1nnc(-c2ccccc2)o1)N1CC(Oc2ccc(CN3CCCC3)c(C(F)(F)F)c2)C1 [Example 45, (5-Phenyl-1,3,4-oxadiazol-2-yl)(3-(4-(pyrrolidin-1-ylmethyl)-3-(trifluoromethyl)phenoxy)azetidin-1-yl)methanone] | 16 nM
9 | CCC1(O)CN(Cc2ccc(OC3CN(C(=O)c4nnc(-c5ccccc5)o4)C3)c(C)c2)C1 [Example 74, (3-(4-((3-Ethyl-3-hydroxyazetidin-1-yl)methyl)-2-methylphenoxy)azetidin-1-yl)(5-phenyl-1,3,4-oxadiazol-2-yl)methanone] | 18 nM
10 | O=C(c1nnc(-c2ccccc2)o1)N1CC(Oc2ccc(CN3CC(C(F)F)C3)cc2)C1 [Example 68, (3-(4-((3-(Difluoromethyl)azetidin-1-yl)methyl)phenoxy)azetidin-1-yl)(5-phenyl-1,3,4-oxadiazol-2-yl)methanone] | 21 nM
11 | COc1ccc(-c2nnc(C(=O)N3CC(Oc4ccc(CN(C)C)c(F)c4)C3)o2)cc1 [Example 27, (3-(4-((Dimethylamino)methyl)-3-fluorophenoxy)azetidin-1-yl)(5-(4-methoxyphenyl)-1,3,4-oxadiazol-2-yl)methanone] | 21 nM
12 | COc1ccc(-c2nnc(C(=O)N3CC(Oc4ccc(CN(C)C)c(C)c4)C3)o2)cc1 [Example 20, (3-(4-((Dimethylamino)methyl)-3-methylphenoxy)azetidin-1-yl)(5-(4-methoxyphenyl)-1,3,4-oxadiazol-2-yl)methanone] | 24 nM
13 | CC(=O)N1CCN(Cc2ccc(OC3CN(C(=O)c4nnc(-c5ccc(Cl)cc5)o4)C3)cc2)CC1 [Example 25, 1-(4-(4-(1-(5-(4-Chlorophenyl)-1,3,4-oxadiazole-2-carbonyl)azetidin-3-yloxy)benzyl)piperazin-1-yl)ethanone] | 34 nM
14 | CN1CCN(Cc2ccc(OC3CN(C(=O)c4nnc(-c5ccccc5)o4)C3)cc2F)CC1 [Example 29, (3-(3-Fluoro-4-((4-methylpiperazin-1-yl)methyl)phenoxy)azetidin-1-yl)(5-phenyl-1,3,4-oxadiazol-2-yl)methanone] | 86 nM
15 | Cc1cc(OC2CN(C(=O)c3nnc(-c4ccccc4)o3)C2)ccc1CN1CCC(C)(CO)CC1 [Example 69] | 22 nM
16 | CN(C)Cc1ccc(OC2CN(C(=O)c3nnc(-c4ccc(Cl)cc4)o3)C2)cc1 [Example 36, (5-(4-Chlorophenyl)-1,3,4-oxadiazol-2-yl)(3-(4-((dimethylamino)methyl)phenoxy)azetidin-1-yl)methanone] | 13 nM
17 | O=C(c1nnc(-c2ccccc2)o1)N1CC(Sc2ccc(CNC3CC3)cc2)C1 [Example 66, (3-(4-((Cyclopropylamino)methyl)phenylthio)azetidin-1-yl)(5-phenyl-1,3,4-oxadiazol-2-yl)methanone] | 10 nM
18 | CC(=O)N1CCN(Cc2ccc(OC3CN(C(=O)c4nnc(-c5ccccc5)o4)C3)cc2)CC1 [Example 23, 1-(4-(4-(1-(5-Phenyl-1,3,4-oxadiazole-2-carbonyl)azetidin-3-yloxy)benzyl)piperazin-1-yl)ethanone] | 99 nM
19 | COc1ccc(-c2nnc(C(=O)N3CC(Oc4ccc(CN5CCN(C)CC5)cc4C)C3)o2)cc1 [Example 10, (5-(4-Methoxyphenyl)-1,3,4-oxadiazol-2-yl)(3-(2-methyl-4-((4-methylpiperazin-1-yl)methyl)phenoxy)azetidin-1-yl)methanone] | 41 nM
20 | COc1ccc(-c2nnc(C(=O)N3CC(Oc4ccc(CN5CCC(C)(CO)C5)cc4)C3)o2)cc1 (stereo not shown) [Example 84, (3-(4-((3-(hydroxymethyl)-3-methylpyrrolidin-1-yl)methyl)phenoxy)azetidin-1-yl)(5-(4-methoxyphenyl)-1,3,4-oxadiazol-2-yl)methanone] | 17 nM
21 | CN(C)Cc1ccc(OC2CN(C(=O)c3nnc(-c4ccccc4)o3)C2)cc1Cl [Example 48, (3-(3-Chloro-4-((dimethylamino)methyl)phenoxy)azetidin-1-yl)(5-phenyl-1,3,4-oxadiazol-2-yl)methanone] | 18 nM
22 | COc1ccc(-c2nnc(C(=O)N3CC(Oc4ccc(CN(C)C)c(F)c4F)C3)o2)cc1 [Example 40, (3-(4-((Dimethylamino)methyl)-2,3-difluorophenoxy)azetidin-1-yl)(5-(4-methoxyphenyl)-1,3,4-oxadiazol-2-yl)methanone] | 27 nM
23 | COc1ccc(-c2nnc(C(=O)N3CC(Oc4ccc(CN5CCCC5)c(C(F)(F)F)c4)C3)o2)cc1 [Example 46, (5-(4-Methoxyphenyl)-1,3,4-oxadiazol-2-yl)(3-(4-(pyrrolidin-1-ylmethyl)-3-(trifluoromethyl)phenoxy)azetidin-1-yl)methanone] | 18 nM

Same assay, conditions: separated enantiomers of Example 84 (chiral chromatography fractions); assay not given; read-out: IC50

Row | SMILES | IC50
24 | COc1ccc(-c2nnc(C(=O)N3CC(Oc4ccc(CN5CCC(C)(CO)C5)cc4)C3)o2)cc1 (single isomer, unassigned; (+)) [Example E2, (+)(3-(4-((3-(hydroxymethyl)-3-methylpyrrolidin-1-yl)methyl)phenoxy)azetidin-1-yl)(5-(4-methoxyphenyl)-1,3,4-oxadiazol-2-yl)methanone] | 24 nM

Same assay, conditions: when tested in the above referenced assays (MCH binding assay; MCHR1 receptor activation assay); read-out: IC50 value

Row | SMILES | IC50
25 | Cc1cc(OC2CN(C(=O)c3nnc(-c4ccccc4)o3)C2)ccc1CN(C1CC1)C1CC1 [[3-[4-[(dicyclopropylamino)methyl]-3-methyl-phenoxy]azetidin-1-yl]-(5-phenyl-1,3,4-oxadiazol-2-yl)methanone] | ≥ 100 nM
